Legend:
[1] = molecular target: T1, HiBit-BRG1 fusion protein (Homo sapiens, UniProt P51532); experiment: HiBiT-BRG1 cell-based degradation assay (Nano-Glo HiBiT Lytic Detection, 24 h); conditions: stable HeLa cell line expressing HiBit-BRG1 and LgBit, top dose 30 μM, read-out: BRG1 HiBit Degradation Maximum (%)
T1 construct: expressed in transfected cells
Summary of the method: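 HeLa cells stably expressing HiBiT-BRG1 plus LgBiT were treated with 10-point 3-fold compound dilutions (top 30 μM final) for 24 h. Lytic Nano-Glo HiBiT luminescence was read. % degradation was normalised between DMSO (high control) and 2 μM of a reference BRM/BRG1 degrader (low control).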

HiBit-BRM fusion protein = molecular target: T2, HiBit-BRM fusion protein (Homo sapiens, UniProt P51531); experiment: HiBiT-BRM cell-based degradation assay (Nano-Glo HiBiT Lytic Detection, 24 h); conditions: stable HeLa cell line expressing HiBiT-BRM, top dose 30 μM
T2 construct: expressed in transfected cells
Summary of the method: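 Stable HiBiT-BRM HeLa cells were treated with 10-point 3-fold serial dilutions (30 μM final top dose, duplicate) for 24 h, then lysed with LgBiT-containing detection reagent and luminescence read. Degradation % was normalised to DMSO (high control) and 2 μM reference BRM/BRG1 degrader (low control).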

T1 sequence (P51532 whole entry, the tested form may be a part): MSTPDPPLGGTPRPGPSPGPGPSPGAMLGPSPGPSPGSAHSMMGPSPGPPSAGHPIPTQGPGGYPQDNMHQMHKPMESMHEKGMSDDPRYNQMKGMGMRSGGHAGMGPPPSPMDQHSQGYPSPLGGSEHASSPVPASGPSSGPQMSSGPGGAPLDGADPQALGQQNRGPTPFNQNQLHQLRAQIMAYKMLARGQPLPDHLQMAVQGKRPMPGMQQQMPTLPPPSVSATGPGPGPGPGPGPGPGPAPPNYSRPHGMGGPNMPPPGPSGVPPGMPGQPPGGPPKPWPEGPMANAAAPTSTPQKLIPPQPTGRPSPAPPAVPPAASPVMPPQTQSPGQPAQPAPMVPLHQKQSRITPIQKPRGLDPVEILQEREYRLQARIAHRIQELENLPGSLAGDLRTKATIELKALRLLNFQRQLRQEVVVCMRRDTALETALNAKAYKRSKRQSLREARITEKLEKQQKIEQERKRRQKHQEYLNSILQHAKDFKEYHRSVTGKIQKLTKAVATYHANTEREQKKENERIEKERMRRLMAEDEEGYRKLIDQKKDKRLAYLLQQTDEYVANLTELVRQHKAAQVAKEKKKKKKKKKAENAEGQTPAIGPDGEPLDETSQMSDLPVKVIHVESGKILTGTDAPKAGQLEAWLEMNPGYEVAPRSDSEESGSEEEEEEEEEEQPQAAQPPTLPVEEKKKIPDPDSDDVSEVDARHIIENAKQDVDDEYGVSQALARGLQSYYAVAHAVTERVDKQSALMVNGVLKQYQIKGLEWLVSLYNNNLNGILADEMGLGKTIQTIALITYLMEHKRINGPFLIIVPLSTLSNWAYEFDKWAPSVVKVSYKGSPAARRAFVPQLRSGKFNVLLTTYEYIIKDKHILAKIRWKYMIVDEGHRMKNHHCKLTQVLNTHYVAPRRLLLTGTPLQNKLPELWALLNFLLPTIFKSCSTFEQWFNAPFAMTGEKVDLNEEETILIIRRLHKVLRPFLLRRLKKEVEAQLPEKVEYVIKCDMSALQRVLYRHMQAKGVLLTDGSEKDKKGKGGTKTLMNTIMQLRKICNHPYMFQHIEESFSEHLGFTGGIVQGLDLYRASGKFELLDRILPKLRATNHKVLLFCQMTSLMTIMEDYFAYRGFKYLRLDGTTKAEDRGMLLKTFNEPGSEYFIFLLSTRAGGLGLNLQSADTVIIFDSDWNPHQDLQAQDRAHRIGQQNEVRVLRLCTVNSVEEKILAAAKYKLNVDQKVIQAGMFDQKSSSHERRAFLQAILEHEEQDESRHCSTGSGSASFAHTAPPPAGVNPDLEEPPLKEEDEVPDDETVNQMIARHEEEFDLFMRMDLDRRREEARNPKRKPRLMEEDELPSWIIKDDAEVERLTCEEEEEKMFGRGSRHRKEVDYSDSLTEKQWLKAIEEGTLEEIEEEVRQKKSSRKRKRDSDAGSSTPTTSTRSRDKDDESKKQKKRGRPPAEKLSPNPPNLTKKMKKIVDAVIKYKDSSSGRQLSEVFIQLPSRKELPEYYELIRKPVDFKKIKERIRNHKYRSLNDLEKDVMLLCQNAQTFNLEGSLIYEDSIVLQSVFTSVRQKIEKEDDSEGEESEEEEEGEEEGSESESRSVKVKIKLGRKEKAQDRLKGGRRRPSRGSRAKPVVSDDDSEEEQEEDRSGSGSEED
T2 sequence (P51531 whole entry, the tested form may be a part): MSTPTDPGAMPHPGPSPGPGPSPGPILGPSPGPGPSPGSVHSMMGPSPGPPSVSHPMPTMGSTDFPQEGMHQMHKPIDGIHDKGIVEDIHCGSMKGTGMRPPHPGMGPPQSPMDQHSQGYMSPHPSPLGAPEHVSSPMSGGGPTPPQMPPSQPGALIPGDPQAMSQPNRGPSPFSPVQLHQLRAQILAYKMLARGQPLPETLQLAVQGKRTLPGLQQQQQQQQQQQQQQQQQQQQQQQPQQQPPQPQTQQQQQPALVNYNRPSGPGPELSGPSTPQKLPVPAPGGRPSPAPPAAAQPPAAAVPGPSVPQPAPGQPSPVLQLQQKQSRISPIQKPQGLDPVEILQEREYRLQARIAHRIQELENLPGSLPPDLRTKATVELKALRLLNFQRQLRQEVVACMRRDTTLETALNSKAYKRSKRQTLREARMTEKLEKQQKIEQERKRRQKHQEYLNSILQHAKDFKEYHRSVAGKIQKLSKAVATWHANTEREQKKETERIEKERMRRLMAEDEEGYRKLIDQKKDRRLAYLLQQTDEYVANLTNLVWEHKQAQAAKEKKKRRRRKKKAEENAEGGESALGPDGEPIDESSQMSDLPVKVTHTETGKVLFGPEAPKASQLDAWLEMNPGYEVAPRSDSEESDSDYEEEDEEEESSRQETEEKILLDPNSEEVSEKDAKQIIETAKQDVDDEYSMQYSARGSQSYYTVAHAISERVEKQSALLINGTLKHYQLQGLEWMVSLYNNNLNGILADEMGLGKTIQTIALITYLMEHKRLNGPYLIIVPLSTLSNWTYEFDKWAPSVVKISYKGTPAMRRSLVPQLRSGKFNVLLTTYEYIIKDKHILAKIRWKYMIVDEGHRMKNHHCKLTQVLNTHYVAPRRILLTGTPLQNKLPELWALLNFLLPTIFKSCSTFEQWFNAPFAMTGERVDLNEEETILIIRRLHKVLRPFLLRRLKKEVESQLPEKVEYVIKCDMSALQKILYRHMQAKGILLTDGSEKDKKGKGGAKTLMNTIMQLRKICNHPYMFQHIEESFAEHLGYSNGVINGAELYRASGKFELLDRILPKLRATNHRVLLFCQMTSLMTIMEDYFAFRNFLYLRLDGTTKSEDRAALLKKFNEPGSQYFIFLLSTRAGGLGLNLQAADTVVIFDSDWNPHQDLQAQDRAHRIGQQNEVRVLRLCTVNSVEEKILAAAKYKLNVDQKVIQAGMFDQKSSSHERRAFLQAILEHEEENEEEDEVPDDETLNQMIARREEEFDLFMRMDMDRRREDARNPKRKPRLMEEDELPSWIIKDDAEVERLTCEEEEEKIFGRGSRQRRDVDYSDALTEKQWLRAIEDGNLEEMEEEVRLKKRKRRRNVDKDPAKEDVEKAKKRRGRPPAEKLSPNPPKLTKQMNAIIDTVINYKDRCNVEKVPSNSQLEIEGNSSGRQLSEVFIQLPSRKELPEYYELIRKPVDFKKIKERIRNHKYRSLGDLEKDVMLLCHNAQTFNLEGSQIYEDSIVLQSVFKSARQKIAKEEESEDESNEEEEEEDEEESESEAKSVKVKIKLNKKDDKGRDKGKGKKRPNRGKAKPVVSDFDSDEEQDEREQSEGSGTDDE

| SMILES | Dmax [1] [%] | BRM HiBit Degradation Maximum (%) (HiBit-BRM fusion protein) |
| --- | --- | --- |
| Cc1nc2cccc(NCCOCCOCCNC(=O)C34CC(COc5cc(-c6ccccc6O)nnc5N)(C3)C4)c2c(=O)n1C1CCC(=O)NC1=O (stereo not shown) [Compound 61, 3-(((3-amino-6-(2-hydroxyphenyl)pyridazin-4-yl)oxy)methyl)-N-(2-(2-(2-((3-(2,6-dioxopiperidin-3-yl)-2-methyl-4-oxo-3,4-dihydroquinazolin-5-yl)amino)ethoxy)ethoxy)ethyl)bicyclo[1.1.1]pentane-1-carboxamide] | < 50 | C (“C” indicates maximum degradation < 50%) |
| Nc1nnc(-c2ccccc2O)cc1OCCC12CC(NC(=O)CCCCCCOc3cccc4c3C(=O)N(C3CCC(=O)NC3=O)C4=O)(C1)C2 (stereo not shown) [Compound 20, N-[3-(2-[[3-amino-6-(2-hydroxyphenyl)pyridazin-4-yl]oxy]ethyl)bicyclo[1.1.1]pentan-1-yl]-7-[[2-(2,6-dioxopiperidin-3-yl)-1,3-dioxoisoindol-4-yl]oxy]heptanamide] | < 50 | C (“C” indicates maximum degradation < 50%) |
| Cc1ncsc1-c1ccc(CNC(=O)[C@@H]2C[C@@H](O)CN2C(=O)[C@@H](NC(=O)CCCCC(=O)NCC23CC(COc4cc(-c5ccccc5O)nnc4N)(C2)C3)C(C)(C)C)cc1 [Compound 35, N1-((3-(((3-amino-6-(2-hydroxyphenyl)pyridazin-4-yl)oxy)methyl)bicyclo[1.1.1]pentan-1-yl)methyl)-N6-((S)-1-((2S,4R)-4-hydroxy-2-((4-(4-methylthiazol-5-yl)benzyl)carbamoyl)pyrrolidin-1-yl)-3,3-dimethyl-1-oxobutan-2-yl)adipamide] | < 50 | C (“C” indicates maximum degradation < 50%) |
| Cc1ncsc1-c1ccc(CNC(=O)[C@@H]2C[C@@H](O)CN2C(=O)[C@@H](NC(=O)CCCC(=O)NCC23CC(COc4cc(-c5ccccc5O)nnc4N)(C2)C3)C(C)(C)C)cc1 [Compound 37, N1-((3-(((3-amino-6-(2-hydroxyphenyl)pyridazin-4-yl)oxy)methyl)bicyclo[1.1.1]pentan-1-yl)methyl)-N5-((S)-1-((2S,4R)-4-hydroxy-2-((4-(4-methylthiazol-5-yl)benzyl)carbamoyl)pyrrolidin-1-yl)-3,3-dimethyl-1-oxobutan-2-yl)glutaramide] | < 50 | C (“C” indicates maximum degradation < 50%) |
| Nc1nnc(-c2ccccc2O)cc1OCCC12CC(NC(=O)CCCCCCCCCCNc3cccc4c3C(=O)N(C3CCC(=O)NC3=O)C4=O)(C1)C2 (stereo not shown) [Compound 24, N-[3-(2-[[3-amino-6-(2-hydroxyphenyl)pyridazin-4-yl]oxy]ethyl)bicyclo[1.1.1]pentan-1-yl]-11-[[2-(2,6-dioxopiperidin-3-yl)-1,3-dioxoisoindol-4-yl]amino]undecanamide] | < 50 | C (“C” indicates maximum degradation < 50%) |
| Cc1ncsc1-c1ccc(CNC(=O)[C@@H]2C[C@@H](O)CN2C(=O)[C@@H](NC(=O)CCCCCCCCCCCCC(=O)NCC23CC(COc4cc(-c5ccccc5O)nnc4N)(C2)C3)C(C)(C)C)cc1 [Compound 40, N1-((3-(((3-amino-6-(2-hydroxyphenyl)pyridazin-4-yl)oxy)methyl)bicyclo[1.1.1]pentan-1-yl)methyl)-N14-((S)-1-((2S,4R)-4-hydroxy-2-((4-(4-methylthiazol-5-yl)benzyl)carbamoyl)pyrrolidin-1-yl)-3,3-dimethyl-1-oxobutan-2-yl)tetradecanediamide] | < 50 | B (“B” indicates maximum degradation ≥ 50%) |
| Nc1nnc(-c2ccccc2O)cc1OCC12CC(C(=O)NCCOCc3cccc(COCCOc4cccc5c4C(=O)N(C4CCC(=O)NC4=O)C5=O)c3)(C1)C2 (stereo not shown) [Compound 85, 3-(((3-amino-6-(2-hydroxyphenyl)pyridazin-4-yl)oxy)methyl)-N-(2-((3-((2-((2-(2,6-dioxopiperidin-3-yl)-1,3-dioxoisoindolin-4-yl)oxy)ethoxy)methyl)benzyl)oxy)ethyl)bicyclo[1.1.1]pentane-1-carboxamide] | < 50 | C (“C” indicates maximum degradation < 50%) |
| Nc1nnc(-c2ccccc2O)cc1OCCC12CC(NC(=O)CCOCCOCCNc3cccc4c3C(=O)N(C3CCC(=O)NC3=O)C4=O)(C1)C2 (stereo not shown) [Compound 27, N-[3-(2-[[3-amino-6-(2-hydroxyphenyl)pyridazin-4-yl]oxy]ethyl)bicyclo[1.1.1]pentan-1-yl]-3-[2-(2-[[2-(2,6-dioxopiperidin-3-yl)-1,3-dioxoisoindol-4-yl]amino]ethoxy)ethoxy]propanamide] | < 50 | C (“C” indicates maximum degradation < 50%) |

More lines, main results first:

| Dmax [1] [%] | SMILES | BRM HiBit Degradation Maximum (%) (HiBit-BRM fusion protein) |
| --- | --- | --- |
| < 50 | Nc1nnc(-c2ccccc2O)cc1OCC12CC(C(=O)N3CC(COc4cccc5c4C(=O)N(C4CCC(=O)NC4=O)C5=O)C3)(C1)C2 (stereo not shown) [Compound 87, 4-((1-(3-(((3-amino-6-(2-hydroxyphenyl)pyridazin-4-yl)oxy)methyl)bicyclo[1.1.1]pentane-1-carbonyl)azetidin-3-yl)methoxy)-2-(2,6-dioxopiperidin-3-yl)isoindoline-1,3-dione] | C (“C” indicates maximum degradation < 50%) |
| < 50 | Nc1nnc(-c2ccccc2O)cc1OCC12CC(C(=O)N3CC4(CCN(CCCNc5ccc6c(c5)C(=O)N(C5CCC(=O)NC5=O)C6=O)CC4)C3)(C1)C2 (stereo not shown) [Compound 98, 5-((3-(2-(3-(((3-amino-6-(2-hydroxyphenyl)pyridazin-4-yl)oxy)methyl)bicyclo[1.1.1]pentane-1-carbonyl)-2,7-diazaspiro[3.5]nonan-7-yl)propyl)amino)-2-(2,6-dioxopiperidin-3-yl)isoindoline-1,3-dione; formic acid] | B (“B” indicates maximum degradation ≥ 50%) |
| < 50 | Nc1nnc(-c2ccccc2O)cc1OCC12CC(CNC(=O)CCCCCCOc3cccc4c3C(=O)N(C3CCC(=O)NC3=O)C4=O)(C1)C2 (stereo not shown) [Compound 4, N-[[3-([[3-amino-6-(2-hydroxyphenyl)pyridazin-4-yl]oxy]methyl)bicyclo[1.1.1]pentan-1-yl]methyl]-7-[[2-(2,6-dioxopiperidin-3-yl)-1,3-dioxoisoindol-4-yl]oxy]heptanamide] | C (“C” indicates maximum degradation < 50%) |
| < 50 | Nc1nnc(-c2ccccc2O)cc1OCC12CC(CNC(=O)CCCCCCCCNc3cccc4c3C(=O)N(C3CCC(=O)NC3=O)C4=O)(C1)C2 (stereo not shown) [Compound 7, N-[[3-([[3-amino-6-(2-hydroxyphenyl)pyridazin-4-yl]oxy]methyl)bicyclo[1.1.1]pentan-1-yl]methyl]-9-[[2-(2,6-dioxopiperidin-3-yl)-1,3-dioxoisoindol-4-yl]amino]nonanamide] | C (“C” indicates maximum degradation < 50%) |
| < 50 | Nc1nnc(-c2ccccc2O)cc1OCC12CC(CNC(=O)C3CC3CNC(=O)COc3ccc4c(c3)C(=O)N(C3CCC(=O)NC3=O)C4=O)(C1)C2 (stereo not shown) [Compound 13, N-[[3-([[3-amino-6-(2-hydroxyphenyl)pyridazin-4-yl]oxy]methyl)bicyclo[1.1.1]pentan-1-yl]methyl]-2-[(2-[[2-(2,6-dioxopiperidin-3-yl)-1,3-dioxoisoindol-5-yl]oxy]acetamido)methyl]cyclopropane-1-carboxamide] | C (“C” indicates maximum degradation < 50%) |
| < 50 | Nc1nnc(-c2ccccc2O)cc1OCC12CC(C(=O)N3CCC4(CC3)CC(Oc3ccc5c(c3)C(=O)N(C3CCC(=O)NC3=O)C5=O)C4)(C1)C2 (stereo not shown) [Compound 53, 5-((7-(3-(((3-amino-6-(2-hydroxyphenyl)pyridazin-4-yl)oxy)methyl)bicyclo[1.1.1]pentane-1-carbonyl)-7-azaspiro[3.5]nonan-2-yl)oxy)-2-(2,6-dioxopiperidin-3-yl)isoindoline-1,3-dione] | C (“C” indicates maximum degradation < 50%) |
| < 50 | Nc1nnc(-c2ccccc2O)cc1OCCC12CC(NC(=O)CCCOc3cccc4c3C(=O)N(C3CCC(=O)NC3=O)C4=O)(C1)C2 (stereo not shown) [Compound 18, N-(3-(2-((3-amino-6-(2-hydroxyphenyl)pyridazin-4-yl)oxy)ethyl)bicyclo[1.1.1]pentan-1-yl)-4-((2-(2,6-dioxopiperidin-3-yl)-1,3-dioxoisoindolin-4-yl)oxy)butanamide] | C (“C” indicates maximum degradation < 50%) |
| < 50 | Nc1nnc(-c2ccccc2O)cc1OCC12CC(C(=O)NCCOCCOCCNC(=O)COc3cccc4c3C(=O)N(C3CCC(=O)NC3=O)C4=O)(C1)C2 (stereo not shown) [Compound 90, 3-(((3-amino-6-(2-hydroxyphenyl)pyridazin-4-yl)oxy)methyl)-N-(2-(2-(2-(2-((2-(2,6-dioxopiperidin-3-yl)-1,3-dioxoisoindolin-4-yl)oxy)acetamido)ethoxy)ethoxy)ethyl)bicyclo[1.1.1]pentane-1-carboxamide] | C (“C” indicates maximum degradation < 50%) |
| < 50 | Nc1nnc(-c2ccccc2O)cc1OCC12CC(C(=O)NCCOCCOCCNc3ccc4c(c3)C(=O)N(C3CCC(=O)NC3=O)C4=O)(C1)C2 (stereo not shown) [Compound 66, 3-(((3-amino-6-(2-hydroxyphenyl)pyridazin-4-yl)oxy)methyl)-N-(2-(2-(2-((2-(2,6-dioxopiperidin-3-yl)-1,3-dioxoisoindolin-5-yl)amino)ethoxy)ethoxy)ethyl)bicyclo[1.1.1]pentane-1-carboxamide] | C (“C” indicates maximum degradation < 50%) |

Reference: US12552775B2, “Compounds and uses thereof” (Foghorn Therapeutics Inc., priority 2020, dated 2026)
